Reference: publication PMC11637378, “Optogenetic screening of MCT1 activity implicates a cluster of non-steroidal anti-inflammatory drugs (NSAIDs) as inhibitors of lactate transport” (PLOS ONE, 2024)
Counter-ions that a name gives are not always drawn.

Test system: parent strain (SAWy518)
Settings: not given

Row | Molecule | Offscreen_18hr | Offscreen_24hr | Offscreen_42hr | Read_percentage | OffScreen_percentage [percentage] | Offtarget | Offtarget_sub
1 | Nc1ccc(-c2nc3ccc(-c4nc5cc(N)ccc5[nH]4)cc3[nH]2)cc1 [Ro 90-7501] | 0.6647 | 0.8739 | 0.9612 |  |  |  | 
2 | CCCCc1oc2ccccc2c1C(=O)c1cc(I)c(OCCN(CC)CC)c(I)c1 [Amiodarone hydrochloride] | 0.3754 | 0.6492 | 0.9258 |  |  |  | 
3 | CO[C@H]1C[C@@H]2CC[C@@H](C)[C@@](O)(O2)C(=O)C(=O)N2CCCC[C@H]2C(=O)O[C@H]([C@H](C)C[C@@H]2CC[C@@H](O)[C@H](OC)C2)CC(=O)[C@H](C)/C=C(\C)[C@@H](O)[C@@H](OC)C(=O)[C@H](C)C[C@H](C)/C=C/C=C/C=C/1C [Rapamycin] | 0.0498 | 0.0505 | 0.0758 |  |  |  | 
4 | CCCc1c(-c2ccc(O)cc2)nn(-c2ccc(O)cc2)c1-c1ccc(O)cc1 [Propylpyrazole triol] |  |  |  | 98.9963 percentage |  |  | 
5 | O=C(/C=C/c1ccccc1)c1ccc(O)cc1 [4'-HYDROXYCHALCONE] | 0.7341 | 0.8731 | 0.9266 |  |  |  | 
6 | O=[N+]([O-])c1ccc(O)c2ncccc12 [NITROXOLINE] | 0.0416 | 0.0414 | 0.0729 |  |  |  | 
7 | CC(=O)[C@]1(O)Cc2c(O)c3c(c(O)c2[C@@H](O[C@H]2C[C@H](N)[C@H](O)[C@H](C)O2)C1)C(=O)c1ccccc1C3=O [Idarubicin HCl] | 0.1605 | 0.1891 | 0.402 |  |  |  | 
8 | CCCc1c(-c2ccc(O)cc2)nn(-c2ccc(O)cc2)c1-c1ccc(O)cc1 | 0.7989 | 0.9026 | 0.9515 |  | 98.9963 |  | 
9 | COc1c(C)c2c(c(O)c1C/C=C(\C)CCC(=O)O)C(=O)OC2 [Mycophenolic (Mycophenolate)] | 0.6524 | 0.8532 | 0.951 |  |  |  | 
10 | Erythrosine | 0.8136 | 0.8985 | 0.9466 | 100.818 percentage | 100.818 |  | 
11 | COc1cc(C)c2c(=O)c(-c3ccccc3)coc2c1 [METHOXYVONE] | 0.7685 | 0.8867 | 0.9442 |  |  |  | 
12 | Oc1cc(Cl)ccc1Oc1ccc(Cl)cc1Cl [Triclosan] | 0.1779 | 0.3017 | 0.8343 |  |  |  | 
13 | C=CCOC(Cn1ccnc1)c1ccc(Cl)cc1Cl.O=S(=O)(O)O (stereo not drawn) [ENILCONAZOLE SULFATE] | 0.81 | 0.8908 | 0.9485 |  |  |  | 
14 | CN(C)c1ccc2nc3ccc(=[N+](C)C)cc-3sc2c1.O.O.O.[Cl-] [Methylene Blue] | 0.8664 | 0.9565 | 1.0182 |  |  |  | 
15 | COc1ccc(-c2coc3cc(OC(C)=O)cc(OC(C)=O)c3c2=O)cc1 [BIOCHANIN A DIACETATE] | 0.8079 | 0.8835 | 0.9447 |  |  |  | 
16 | O=C(O)Cc1ccc(-c2ccccc2)cc1 [FELBINAC] | 0.6742 | 0.7657 | 0.7971 |  |  |  | 
17 | CC[N+](CC)(CC)CCOc1ccc(/C=C/c2ccccc2)cc1 [MG 624] | 0.5585 | 0.7684 | 0.9127 |  |  |  | 
18 | CS(=O)(=O)c1ccc(C2=C(c3ccccc3)C(=O)OC2)cc1 [Rofecoxib, reference compound] | 0.8386 | 0.9205 | 0.975 | 103.916 | 103.916 |  | 
19 | COc1ncc(-c2ccc3nccc(-c4ccnnc4)c3c2)cc1NS(=O)(=O)c1ccc(F)cc1F [GSK2126458 (GSK458)] | 0.433 | 0.6688 | 0.9364 |  |  |  | 
20 | O=c1c2ccccc2[se]n1-c1ccccc1 [EBSELEN] | 0.0405 | 0.0408 | 0.0412 |  |  |  | 
21 | O=C([O-])c1ccccc1-c1c2cc(I)c(=O)c(I)c-2oc2c(I)c([O-])c(I)cc12.[Na+].[Na+] [ERYTHROSINE SODIUM] | 0.8136 | 0.8985 | 0.9466 |  |  |  | 
22 | CC(C)NNC(=O)c1ccncc1.O=P(O)(O)O [Iproniazid phosphate, reference compound] |  |  |  |  |  | NO | 0.4143
23 | CC[C@@H](C(=O)[C@@H](C)[C@@H](O)[C@H](C)[C@@H]1O[C@@H]([C@@H](CC)C(=O)[O-])CC[C@@H]1C)[C@H]1OC2(C=C[C@@H](O)[C@]3(CC[C@@](C)([C@H]4CC[C@](O)(CC)[C@H](C)O4)O3)O2)[C@H](C)C[C@@H]1C.[Na+] (stereo partly drawn) [SALINOMYCIN, SODIUM] | 0.1472 | 0.2295 | 0.8421 |  |  |  | 
24 | NS(=O)(=O)c1ccc(-n2nc(C(F)(F)F)cc2-c2ccc(Cl)cc2)cc1 [SC-236, reference compound] |  |  |  |  |  | NO | 0.2541

Row | Molecule | Offscreen_18hr | Offscreen_24hr | Offscreen_42hr | Read_percentage | OffScreen_percentage [percentage] | Offtarget | Offtarget_sub
25 | O=[N+]([O-])/C=C/c1ccc2c(c1)OCO2 [MNS] | 0.2427 | 0.4675 | 0.9062 |  |  |  | 
26 | CC(C)(C)C(=O)C(Oc1ccc(Cl)cc1)n1cncn1 (stereo not drawn) [TRIADIMEFON] | 0.0626 | 0.0684 | 0.2136 |  |  |  | 
27 | O=C(/C=C/c1ccc(O)cc1)c1ccccc1 [4-hydroxychalcone, reference compound] | 0.8368 | 0.9201 | 0.9804 | 103.693 percentage | 103.693 |  | 
28 | N#CC[C@@H](C1CCCC1)n1cc(-c2ncnc3[nH]ccc23)cn1 [S-Ruxolitinib (INCB018424)] | 0.6167 | 0.8199 | 0.9411 |  |  |  | 
29 | CCN(CC)C(=O)[C@]1(c2ccccc2)C[C@@H]1CN.Cl [Milnacipran hydrochloride] | 0.8463 | 0.9181 | 0.9801 |  |  |  | 
30 | O=C(O)Cc1cc(I)c(Oc2ccc(O)c(I)c2)c(I)c1 [TIRATRICOL] | 0.6885 | 0.8174 | 0.855 |  |  |  | 
31 | C[n+]1c2cc(N)ccc2cc2ccc(N)cc21.[Cl-] [ACRIFLAVINIUM HYDROCHLORIDE] | 0.6168 | 0.8008 | 0.904 |  |  |  | 
32 | CC(=O)[C@]1(O)Cc2c(O)c3c(c(O)c2[C@@H](O[C@H]2C[C@H](N)[C@H](O)[C@H](C)O2)C1)C(=O)c1ccccc1C3=O [Idarubicin] | 0.154 | 0.1842 | 0.3602 |  |  |  | 
33 | COc1c(C)c2c(c(O)c1C/C=C(\C)CCC(=O)OCCN1CCOCC1)C(=O)OC2 [MYCOPHENOLATE MOFETIL] | 0.5798 | 0.792 | 0.9179 |  |  |  | 
34 | Cc1ccc(S(=O)(=O)/C=C/C#N)cc1 [Bay 11-7082] | 0.1157 | 0.2743 | 0.896 |  |  |  | 
35 | O=C(Nc1cc(C(F)(F)F)cc(C(F)(F)F)c1)c1cc(Cl)ccc1O [IMD 0354] | 0.1675 | 0.2933 | 0.8452 |  |  |  | 
36 | CCN(CC)CCOc1ccc(C(=C(Cl)c2ccccc2)c2ccccc2)cc1 [Clomifene citrate] | 0.6687 | 0.875 | 0.9713 |  |  |  | 
37 | COc1c(C)c2c(c(O)c1C/C=C(\C)CCC(=O)O)C(=O)OC2 [MYCOPHENOLIC ACID] | 0.6454 | 0.8395 | 0.9254 |  |  |  | 
38 | Cc1cc(C(C)(C)CC(C)(C)C)ccc1OCCOCC[N+](C)(C)Cc1ccccc1.[Cl-] [METHYLBENZETHONIUM CHLORIDE] | 0.7745 | 0.875 | 0.932 |  |  |  | 
39 | CCCCCCCCc1ccc(CCC(N)(CO)CO)cc1.Cl [Fingolimod (FTY720)] | 0.0535 | 0.0624 | 0.7799 |  |  |  | 
40 | CCC(C)n1ncn(-c2ccc(N3CCN(c4ccc(OC[C@H]5CO[C@](Cn6cncn6)(c6ccc(Cl)cc6Cl)O5)cc4)CC3)cc2)c1=O.Cl.Cl (stereo partly drawn) [ITRACONAZOLE HYDROCHLORIDE] | 0.8063 | 0.8859 | 0.9404 |  |  |  | 
41 | CCN(CC)C(=S)SSC(=S)N(CC)CC [Disulfiram] | 0.0526 | 0.0614 | 0.7775 |  |  |  | 
42 | O=C1c2ccccc2C(=O)c2c(O)c(O)cc(O)c21 [PURPURIN] | 0.5082 | 0.6741 | 0.7778 |  |  |  | 
43 | O=C1Nc2ccccc2/C1=C1/Nc2ccccc2/C1=N\O [Indirubin-3'-oxime] | 0.6559 | 0.8248 | 0.9006 |  |  |  | 
44 | CCN(CC)C(=S)SSC(=S)N(CC)CC [Tetraethylthiuram disulfide] | 0.0416 | 0.0418 | 0.0415 |  |  |  | 
45 | O=C1NC(=O)/C(=C/c2ccc(-c3ccc(F)cc3O)o2)S1 [AS-252424] | 0.6896 | 0.8289 | 0.8951 |  |  |  | 
46 | CCC(Cc1c(I)cc(I)c(N)c1I)C(=O)O (stereo not drawn) [IOPANIC ACID] | 0.6491 | 0.7855 | 0.8261 |  |  |  | 
47 | CO[C@H]1C[C@@H]2CC[C@@H](C)[C@@](O)(O2)C(=O)C(=O)N2CCCC[C@H]2C(=O)O[C@H]([C@H](C)C[C@@H]2CC[C@@H](O)[C@H](OC)C2)CC(=O)[C@H](C)/C=C(\C)[C@@H](O)[C@@H](OC)C(=O)[C@H](C)C[C@H](C)/C=C/C=C/C=C/1C [SIROLIMUS] | 0.341 | 0.5452 | 0.8609 |  |  |  | 

Same assay, conditions: parent strain growth reading, 18 hr

Row | Molecule | Offscreen_18hr
48 | CN(C)c1ccc2nc3ccc(=[N+](C)C)cc-3sc2c1 [Methylene Blue trihydrate] | 0.8664

Same assay, conditions: parent strain growth reading, 24 hr

Row | Molecule | Offscreen_24hr
49 | CN(C)c1ccc2nc3ccc(=[N+](C)C)cc-3sc2c1 [Methylene Blue trihydrate] | 0.9565

Same assay, conditions: parent strain growth reading, 42 hr

Row | Molecule | Offscreen_42hr
50 | CN(C)c1ccc2nc3ccc(=[N+](C)C)cc-3sc2c1 [Methylene Blue trihydrate] | 1.0182
